Values quoted from earlier work in US5948422A, “Oral dosage-forms containing a β-lactam antibiotic” (Yamanouchi Europe B.V., priority 1995, dated 1999).
Counter-ions that a name gives are not always drawn.

Settings: compared with free acid, other salts and ester

## CC1(C)S[C@@H]2[C@H](NC(=O)COc3ccccc3)C(=O)N2[C@H]1C(=O)O [potassium salt, phenoxymethylpenicillin potassium]
  bioavailability on oral administration: best bioavailability
